{"source": "paper PMC10094648", "about": "“Short, Lipidated Dendrimeric γ-AApeptides as New Antimicrobial Peptidomimetics” (International Journal of Molecular Sciences, 2023)", "key": {"[1]": {"system": "Human red blood cells", "test": "Hemolytic activity", "settings": "HC50 over MIC against MRSA", "protocol": "(§3) Human red blood cells were washed with 1 × PBS buffer, then centrifuged at 700 g for 10 min. After discarding the top clear solution, the bottom cells were diluted to obtain 5% solution using 1 × PBS buffer.\n(§4) Then, 50 μL of cell solution was injected into 96-well plates. Following this, 50 μL of synthesized compounds with different concentrations from 250 to 1.95 μg/mL were added into 96-well plates. Then, the mixture was incubated for 1 h at 37 °C. After centrifuging at 3500× g rpm for 10 min, 30 μL of the supernatant was transferred into a new 96-well plate with 100 μL of 1 × PBS buffer. With the same microplate reader, the data of absorbance at 540 nm were compared. Positive control: 2% Triton-100. Calculation formula: percentage of hemolysis = [(Absorbance of sample-Absorbance of PBS)/(Absorbance of Triton-Absorbance of PBS)] × 100"}, "[2]": {"system": "MRSA (ATCC 33591)", "format": "cell-based, methicillin-resistant Staphylococcus aureus", "procedure": "(§1) Chemical reagents and solvents were bought from Sigma Aldrich, Oakwood, TCI, and Chem-Impex. Final products were purified with Waters Breeze 2 HPLC and lyophilized using Labconco lyophilizer. HPLC traces of the final product were collected using 5–95% acetonitrile in water with 0.1% HPLC-grade TFA for at least 40 min. The nuclear magnetic resonance (NMR) data were collected using the Agilent 600 MHz NEO instrument. High-resolution mass spectra of compounds (Table S1) were collected using an Agilent Technologies 6540 UHD accurate-mass Q-TOF LC/MS spectrometer. Antibacterial assays and mechanism of action studies were performed using a Biotec multimode microplate reader synergy H4. Six different species of bacteria were used for bacteria assay tests, such as MRSA (ATCC 33591), MRSE (RP62A), VREF (ATCC 700802), E. coli (ATCC 25922), K. pneumoniae (ATCC 13383), and P. aeruginosa (ATCC 27853).\n(§2) Concisely, E. coli, K. pneumoniae, P. aeruginosa, MRSA, MRSE, and VREF were cultivated in 37 °C TSB medium for 16 h. Subsequently, 4 ml of new TSB medium was added to 100 μL of cultivated bacterial solution and incubated for another 6 h to reach the mid-log phase. Next, 96-well plates were injected with 50 μL of bacterial solution that reached mid-log phase and 50 μL of compounds with different concentrations, which ranged from 0.75–25 μg/mL. Then, the 96-wells plates were incubated for another 16 h at 37 °C. After 16 h, MICs were determined by a multimode microplate reader."}, "[3]": {"system": "Human red blood cells", "settings": "red cells of human, 1 h", "protocol": "as §3, §4"}, "[4]": {"system": "E. coli (ATCC 25922)", "format": "cell-based", "settings": "ATCC 25922, 16 h", "procedure": "as §1, §2"}, "[5]": {"system": "P. aeruginosa (ATCC 27853)", "format": "cell-based", "settings": "ATCC 27853, 16 h", "procedure": "as §1, §2"}, "[6]": {"system": "K. pneumoniae (ATCC 13383)", "format": "cell-based", "settings": "ATCC 13383, 16 h", "procedure": "as §1, §2"}, "[7]": {"system": "MRSE (RP62A)", "format": "cell-based", "settings": "16 h", "procedure": "as §1, §2"}, "[8]": {"system": "E.F. (VREF, ATCC 700802)", "format": "cell-based", "settings": "ATCC 700802, 16 h", "procedure": "as §1, §2"}, "[9]": {"system": "MRSA", "test": "Drug resistance study (serial passages)", "format": "cell-based, methicillin-resistant Staphylococcus aureus", "settings": "after 14 generations", "procedure": "Since the abuse of antibiotics, antibacterial drug resistance has become an increasingly serious threat. Thus, it is of great importance to assess the drug resistance of newly developed lead compounds.\nThe first generation of MIC data of YW-1 against MRSA and E. coli was already obtained in an MIC study. Then, the MRSA of the first generation in the well next to the last clear well was diluted to the mid-log phase, and MICs were tested at 37 °C. This step was repeated for 14 passages. The data of drug resistance for E. coli were obtained using the same method with bacterial E. coli."}, "[10]": {"settings": "TSB medium, 16 h at 37 °C, compounds 0.75–25 μg/mL, microplate reader"}}, "note": "Read-outs that look alike come from different tables or passages of the source."}
{"compound": "CCCCCCCCCCCCCCCC(=O)N[C@@H](CO)CN(CC(N)=O)C(=O)CCN(C[C@@H](N)CCCCN)C(=O)CCN", "note": "[YW-5]", "values": [{"measurement": "Selectivity Index (HC50/MICMRSA)", "setting": "[1]", "result": ">41.7"}, {"measurement": "MIC, Gram-Positive (+), MRSA", "setting": "[2]; ATCC 33591, 16 h", "result": "1.5 to 3", "unit": "µg/mL"}, {"measurement": "HC50", "setting": "[3]", "result": ">125", "unit": "µg/mL"}, {"measurement": "MIC, Gram-Negative (−), E. coli", "setting": "[4]", "result": "6 to 12.5", "unit": "µg/mL"}]}
{"compound": "CCCCCCCCCCCCCCCC(=O)N[C@@H](CCCCN)CN(CC(N)=O)C(=O)CCN(C[C@@H](N)CCCCN)C(=O)CCN", "note": "[YW-6]", "values": [{"measurement": "Selectivity Index (HC50/MICMRSA)", "setting": "[1]", "result": ">83.3"}, {"measurement": "MIC, Gram-Positive (+), MRSA", "setting": "[2]; [10]", "result": "0.75 to 1.5", "unit": "µg/mL"}, {"measurement": "HC50", "setting": "[3]", "result": ">125", "unit": "µg/mL"}, {"measurement": "MIC, Gram-Negative (−), E. coli", "setting": "[4]", "result": "6 to 12.5", "unit": "µg/mL"}]}
{"compound": "CCCCCCCCCCCCCCCC(=O)N[C@@H](CCCCNC(=N)N)CN(CC(N)=O)C(=O)CCN(C[C@@H](N)CCCCN)C(=O)CCN", "note": "[YW-7]", "values": [{"measurement": "Selectivity Index (HC50/MICMRSA)", "setting": "[1]", "result": ">83.3"}, {"measurement": "MIC, Gram-Positive (+), MRSA", "setting": "[2]; [10]", "result": "0.75 to 1.5", "unit": "µg/mL"}, {"measurement": "HC50", "setting": "[3]", "result": ">125", "unit": "µg/mL"}, {"measurement": "MIC, Gram-Negative (−), P.A.", "setting": "[5]", "result": "12.5 to 25", "unit": "µg/mL"}, {"measurement": "MIC, Gram-Negative (−), K.P.", "setting": "[6]", "result": ">25", "unit": "µg/mL"}, {"measurement": "MIC, Gram-Negative (−), E. coli", "setting": "[4]", "result": "3.0 to 6.0", "unit": "µg/mL"}, {"measurement": "MIC, Gram-Positive (+), MRSE", "setting": "[7]", "result": "3.0 to 6.0", "unit": "µg/mL"}, {"measurement": "MIC, Gram-Positive (+), E.F.", "setting": "[8]", "result": "3.0 to 6.0", "unit": "µg/mL"}]}
{"compound": "O=C(O)c1cn(C2CC2)c2cc(N3CCNCC3)c(F)cc2c1=O", "note": "[ciprofloxacin, reference compound]", "values": [{"measurement": "increase in MIC (drug resistance)", "setting": "[9]", "result": "about 100 fold"}]}
